From patent US20240279218A1 (Hoffmann-La Roche Inc., priority 2016, published 2024) come the findings set out here.

Assay [1] addresses T1, h-GABA-A α5β3γ2 (Homo sapiens (Human), UniProt P18507+P31644). Briefly: [3H]flumazenil competition binding assay, membranes of HEK293 cells expressing human GABAA receptors. The note with it: displacement of [3H]flumazenil 0.5 nM, HEK293 cells expressing human receptors, mean of two determinations; read-out: Ki h-GABA-A α5β3γ2. How it is done: The affinity of compounds at GABAA receptor subtypes was measured by competition for [3H]flumazenil (85 Ci/mmol; Roche) binding to HEK293 cells expressing rat (stably transfected) or human (transiently transfected) receptors of composition α1β3γ2, α2β3γ2, α3β3γ2 and α5β3γ2.
Cell pellets were suspended in Krebs-tris buffer (4.8 mM KCl, 1.2 mM CaCl2, 1.2 mM MgCl2, 120 mM NaCl, 15 mM Tris; pH 7.5; binding assay buffer), homogenized by polytron for ca. 20 sec on ice and centrifuged for 60 min at 4° C. (50000 g; Sorvall, rotor: SM24=20000 rpm). The cell pellets were resuspended in Krebs-tris buffer and homogenized by polytron for ca. 15 sec on ice. Protein was measured (Bradford method, Bio-Rad) and aliquots of 1 mL were prepared and stored at −80° C.
Assays were incubated to equilibrium for 1 hour at 4° C. and harvested onto GF/C uni-filters (Packard) by filtration using a Packard harvester and washing with ice-cold wash buffer (50 mM Tris; pH 7.5). After drying, filter-retained radioactivity was detected by liquid scintillation counting. Ki values were calculated using Excel-Fit (Microsoft) and are the means of two determinations.

Assay [2] concerns the target T1, h-GABA-A α5β3γ2. Briefly: Two-electrode voltage clamp electrophysiology in Xenopus oocytes expressing GABAA receptors, modulation of GABA EC20 current. Type of assay: cell-based. The note with it: for Efficacy (GABA) %: % modulation of GABA EC20 = 100*(Fold increase−1); for Efficacy (GABA) % / Fold increase h-GABA-A α5β3γ2 oocyte: Xenopus oocytes; for Fold increase h-GABA-A α5β3γ2 oocyte: GABA EC20, test compound at approx. 30 fold its Ki. How it is done:
Xenopus laevis oocytes at maturation stages V-VI were used for the expression of cloned mRNA encoding GABAA receptor subunits. Oocytes ready for RNA micro-injection were bought from Ecocyte, Castrop-Rauxel, Germany and stored in modified Barth's medium (composition in mM: NaCl 88, KCl 1, NaHCO32.4, HEPES 10, MgSO4 0.82, CaNO3 0.33, CaCl2) 0.33, pH=7.5) at 20° C. until the experiment.
Oocytes were plated in 96-well plates to be used in an automated instrument (Robo-ocyte, MultiChannelSystems, Reutlingen, Germany) for microinjection and electrophysiological recordings. Approximately 50 nl of an aqueous solution containing the RNA transcripts for the subunits of the desired GABAA receptor was injected into each oocyte. RNA concentrations ranged between 0.3 and 16 ng/μl/subunit and were adjusted in pilot experiments to obtain GABA responses of a suitable size and a maximal effect of the reference modulator, Beta-CCM (β-CCM), a betacarboline negative allosteric modulator (NAM) at the GABAA receptor benzodiazepine (BZD) binding site or Midazolam, a benzodiazepine positive allosteric modulator (PAM) at the GABAA receptor benzodiazepine (BZD) binding site. The concentration of the γ2 subunit encoding RNA usually was 5-to 10-fold higher than the RNAs encoding the other subunits. Oocytes were kept in modified Barth's medium (composition in mM: NaCl 88, KCl 1, NaHCO3 4, HEPES 10, MgSO4 0.82, CaNO3 0.33, CaCl2 0.33, pH=7.5) at 20° C. until the experiment.
Electrophysiological experiments were performed on days 3 to 5 after the micro-injection of mRNA. During the experiment the oocytes were constantly superfused by a solution containing (in mM) NaCl 90, KCl 1, HEPES 5, MgCl2 1, CaCl2 1 (pH 7.4). Oocytes were impaled by two glass microelectrodes (resistance: 0.4 MΩ) which were filled with a solution containing KCl 1M+K-acetate 1.5 M and voltage-clamped to −80 mV. The recordings were performed at room temperature using the Roboocyte two-electrode voltage clamp system (Multichannelsystem). After an initial equilibration period of 1.5 min GABA was added for 1.5 min at a concentration evoking approximately 20% of a maximal current response (EC20). After another rest interval of 2.5 min GABA was again added evoking a response of similar amplitude and shape. […] Current traces were recorded at a digitization rate of 10 Hz during and shortly before and after the GABA application.
Each compound and concentration was tested on at least 3 oocytes.
For the analysis, the digitized current traces of the first and second GABA response were superimposed and, if necessary, rescaled to equal maximal amplitudes. The ratio between the two responses during the time interval of test compound application was calculated point by point. The extremum of the resulting “ratio trace” was taken as the efficacy (“Fold increase”) of the compound expressed as “% modulation of GABA EC20” (100*(Fold increase−1)).

The mark [3] stands for this setting: positive control, maximally effective concentration, 3-6 oocytes per plate.

Consider `CCC[C@@H](CO)NC(=O)c1ccc(OCc2c(-c3ccc(C)nc3)noc2C2CC2)nc1` [Example 5, 6-((5-cyclopropyl-3-(6-methyl-3-pyridyl)isoxazol-4-yl)methoxy)-N-((1S)-1-(hydroxymethyl)butyl)pyridine-3-carboxamide], for which the Ki at h-GABA-A α5β3γ2 [1] is 58.6 nM. Also, on h-GABA-A α5β3γ2 [2], the “Efficacy (GABA) %” value is 245% and the “Fold increase h-GABA-A α5β3γ2 oocyte” value stood at 3.45.

On to `Cc1ccc(-c2noc(C)c2COc2ccc(C(=O)NC3(C)COC3)nn2)cn1` [Example 83, 6-((5-methyl-3-(6-methylpyridin-3-yl)isoxazol-4-yl)methoxy)-N-(3-methyloxetan-3-yl)pyridazine-3-carboxamide], for which the Ki at h-GABA-A α5β3γ2 [1] turned out to be 5 nM. Also, at h-GABA-A α5β3γ2 [2], the “Efficacy (GABA) %” value turned out to be 96% and the “Fold increase h-GABA-A α5β3γ2 oocyte” value is 1.96.

Consider `Cc1ccc(-c2noc(C)c2COc2cnc(C(=O)NCC(F)(F)F)cn2)cn1` [Example 78, 5-((5-methyl-3-(6-methyl-3-pyridyl)isoxazol-4-yl)methoxy)-N-(2,2,2-trifluoroethyl)pyrazine-2-carboxamide], for which the Ki at h-GABA-A α5β3γ2 [1] was determined as 24.3 nM. At h-GABA-A α5β3γ2 [2], the “Efficacy (GABA) %” value amounted to 42% and the “Fold increase h-GABA-A α5β3γ2 oocyte” value worked out at 1.42.

Consider `Cc1ccc(-c2noc(C)c2COc2cnc(C(=O)NC3CC3)cn2)cn1` [Example 74, N-cyclopropyl-5-((5-methyl-3-(6-methyl-3-pyridyl)isoxazol-4-yl)methoxy)pyrazine-2-carboxamide], for which, on h-GABA-A α5β3γ2 [1], the Ki was 9.2 nM. Besides, on h-GABA-A α5β3γ2 [2], the “Efficacy (GABA) %” value is given as 28% and the “Fold increase h-GABA-A α5β3γ2 oocyte” value stood at 1.28.

As for `Cc1ccc(-c2noc(C)c2COc2ccc(C(=O)N3CC(F)C3)nn2)cn1` [Example 65, (3-fluoroazetidin-1-yl)(6-((5-methyl-3-(6-methylpyridin-3-yl)isoxazol-4-yl)methoxy)pyridazin-3-yl)methanone], the Ki on h-GABA-A α5β3γ2 [1] turned out to be 7.2 nM. In addition, at h-GABA-A α5β3γ2 [2], the “Efficacy (GABA) %” value came out at 62% and the “Fold increase h-GABA-A α5β3γ2 oocyte” value is given as 1.62.

For `Cc1ccc(-c2noc(C)c2COc2ccc(C(=O)NC3CCOC(C)(C)C3)nn2)cn1` (racemic) [Example 58, (RS)—N-(2,2-dimethyltetrahydropyran-4-yl)-6-((5-methyl-3-(6-methylpyridin-3-yl)isoxazol-4-yl)methoxy)pyridazine-3-carboxamide], at h-GABA-A α5β3γ2 [2], the “Efficacy (GABA) %” value is given as 71% and the “Fold increase h-GABA-A α5β3γ2 oocyte” value was 1.71.

In the case of `Cc1ccc(-c2noc(C)c2COc2ccc(C(=O)NC3CCS(=O)(=O)C3)nn2)cn1` (racemic) [Example 36, (RS)—N-(1,1-dioxothiolan-3-yl)-6-((5-methyl-3-(6-methylpyridin-3-yl)-1,2-oxazol-4-yl)methoxy)pyridazine-3-carboxamide], on h-GABA-A α5β3γ2 [2], the “Efficacy (GABA) %” value stood at 65% and the “Fold increase h-GABA-A α5β3γ2 oocyte” value is reported as 1.65.

`Cc1ccc(-c2noc(C)c2COc2ccc(C(=O)NC3CCOC3)nn2)cn1` (racemic) [Example 45, (RS)-6-((5-methyl-3-(6-methylpyridin-3-yl)isoxazol-4-yl)methoxy)-N-(tetrahydrofuran-3-yl)pyridazine-3-carboxamide]: at h-GABA-A α5β3γ2 [2], the “Efficacy (GABA) %” value amounted to 84% and the “Fold increase h-GABA-A α5β3γ2 oocyte” value is 1.84.

As to `CO[C@@H]1CC[C@@H](NC(=O)c2ccc(OCc3c(-c4ccc(C)nc4)noc3C)nn2)C1` (racemic) [Example 166, trans-N-((1RS,3RS)-3-methoxycyclopentyl)-6-((5-methyl-3-(6-methylpyridin-3-yl)isoxazol-4-yl)methoxy)pyridazine-3-carboxamide], on h-GABA-A α5β3γ2 [2], the “Efficacy (GABA) %” value was determined as 70% and the “Fold increase h-GABA-A α5β3γ2 oocyte” value was 1.7.

For `COC(=O)c1cc2c(cn1)[nH]c1ccccc12` [β-CCM, Beta-CCM, reference compound], at h-GABA-A α5β3γ2 [2] (setting [3]), the Fold increase is reported as approximately 0.5 and the “inhibition of the GABA-evoked current” value is given as approximately 50%.

For the compound `Cc1ccc(-c2nocc2COc2ccc(C(=O)NC3CCOCC3)cn2)cn1` [Example 44, 6-((3-(6-methyl-3-pyridyl)isoxazol-4-yl)methoxy)-N-tetrahydropyran-4-yl-pyridine-3-carboxamide], the “Efficacy (GABA) %” value on h-GABA-A α5β3γ2 [2] came out at 54%.

For the compound `Cc1ccc(-c2noc(C)c2COc2ccc(C(=O)NC(C)C(F)(F)F)nn2)cn1` (racemic) [Example 34, (RS)-6-((5-methyl-3-(6-methylpyridin-3-yl)isoxazol-4-yl)methoxy)-N-(1,1,1-trifluoropropan-2-yl)pyridazine-3-carboxamide], at h-GABA-A α5β3γ2 [2], the “Efficacy (GABA) %” value came to 84% and the “Fold increase h-GABA-A α5β3γ2 oocyte” value came out at 1.84.

Regarding `Cc1ccc(-c2noc(C)c2COc2ccc(C(=O)N3C[C@@H]4C[C@H]3CO4)nn2)cn1` [Example 151, (1S,4S)-2-oxa-5-azabicyclo[2.2.1]heptan-5-yl(6-((5-methyl-3-(6-methylpyridin-3-yl)isoxazol-4-yl)methoxy)pyridazin-3-yl)methanone], the “Efficacy (GABA) %” value at h-GABA-A α5β3γ2 [2] is 68%.

For `Cc1ccc(-c2noc(C)c2COc2ccc(C(=O)N[C@@H]3CC[C@@H](O)C3)nn2)cn1` (racemic) [Example 152, N-((1RS,3RS)-3-hydroxycyclopentyl)-6-((5-methyl-3-(6-methylpyridin-3-yl)isoxazol-4-yl)methoxy)pyridazine-3-carboxamide], on h-GABA-A α5β3γ2 [2], the “Efficacy (GABA) %” value is given as 85% and the “Fold increase h-GABA-A α5β3γ2 oocyte” value was determined as 1.85.

In the case of `Cc1ccc(-c2noc(C)c2COc2ccc(C(=O)NC3(C)CCOC3)nn2)cn1` (racemic) [Example 75], on h-GABA-A α5β3γ2 [2], the “Efficacy (GABA) %” value is on record as 89% and the “Fold increase h-GABA-A α5β3γ2 oocyte” value is listed as 1.89.

In the case of `O=C(N[C@H]1CCOC1)c1ccc(OCc2c(-c3ccc(Cl)nc3)noc2C2CC2)nn1` [Example 179, (S)-6-((3-(6-chloropyridin-3-yl)-5-cyclopropylisoxazol-4-yl)methoxy)-N-(tetrahydrofuran-3-yl)pyridazine-3-carboxamide], on h-GABA-A α5β3γ2 [2], the “Efficacy (GABA) %” value stood at 82%.

Consider `Cc1onc(-c2ccc(Cl)nc2)c1COc1ccc(C(=O)N[C@H]2CCOC2)nn1` [Example 160, (S)-6-((3-(6-chloropyridin-3-yl)-5-methylisoxazol-4-yl)methoxy)-N-(tetrahydrofuran-3-yl)pyridazine-3-carboxamide], for which the “Efficacy (GABA) %” value at h-GABA-A α5β3γ2 [2] is listed as 42%.

`Cc1ccc(-c2noc(C)c2COc2ccc(C(=O)NC3CCCOCC3)nn2)cn1` (racemic) [Example 187, (RS)-6-((5-methyl-3-(6-methylpyridin-3-yl)isoxazol-4-yl)methoxy)-N-(oxepan-4-yl)pyridazine-3-carboxamide]: at h-GABA-A α5β3γ2 [2], the “Efficacy (GABA) %” value is on record as 88% and the “Fold increase h-GABA-A α5β3γ2 oocyte” value worked out at 1.88.

With `Cc1ncc2n1-c1ccc(Cl)cc1C(c1ccccc1F)=NC2` [Midazolam, reference compound], at h-GABA-A α5β3γ2 [2] (setting [3]), the Fold increase is on record as approximately 2.5 and the “potentiation of the GABA-induced current” value was approximately 150%.

Turning to `Cc1ccc(-c2noc(C)c2COc2ccc(C(=O)NC(C)(C)CCS(C)(=O)=O)nn2)cn1` [Example 80, 6-((5-methyl-3-(6-methylpyridin-3-yl)isoxazol-4-yl)methoxy)-N-(2-methyl-4-(methylsulfonyl)butan-2-yl)pyridazine-3-carboxamide], at h-GABA-A α5β3γ2 [2], the “Efficacy (GABA) %” value was found to be 108% and the “Fold increase h-GABA-A α5β3γ2 oocyte” value is given as 2.08.
